Six compounds from patent US20260209223A1, “FGFR3 INHIBITOR COMPOUNDS” (TYRA BIOSCIENCES, INC., priority 2022, published 2026) can be followed below.

What all share (assay): Kinase binding assay (Kd), kinase-tagged T7 phage, affinity beads, qPCR
What all share (conditions): in vitro binding assay, 11-point 3-fold dilution series
On the technique in general: Quantitative PCR measures a nucleic acid by following its amplification.

Experiment [1] addresses T1, FGFR2 (Homo sapiens, UniProt P21802).
T1 construct: made in house; host or cells: E. coli (BL21-derived) infected with T7 phage
The protocol: (§1) Kinase-tagged T7 phage strains were prepared in an E. coli host derived from the BL21 strain. E. coli were grown to log-phase and infected with T7 phage and incubated with shaking at 32° C. until lysis. The lysates were centrifuged and filtered to remove cell debris. Streptavidin-coated magnetic beads were treated with biotinylated small molecule ligands for 30 minutes at room temperature to generate affinity resins for kinase assays. The liganded beads were blocked with excess biotin and washed with blocking buffer SeaBlock (Pierce), 1% BSA, 0.05% Tween 20, 1 mM DTT to remove unbound ligand and to reduce non-specific binding. Binding reactions were assembled by combining kinases, liganded affinity beads, and test compounds in 1× binding buffer (20% SeaBlock, 0.17×PBS, 0.05% Tween 20, 6 mM DTT).
(§2) Test compounds were prepared as 111× stocks in 100% DMSO. Kds were determined using an 11-point 3-fold compound dilution series with three DMSO control points. All compounds for Kd measurements are distributed by acoustic transfer (non-contact dispensing) in 100% DMSO. The compounds were then diluted directly into the assays such that the final concentration of DMSO was 0.9%. All reactions performed in polypropylene 384-well plate. Each was a final volume of 0.02 ml. The assay plates were incubated at room temperature with shaking for 1 hour and the affinity beads were washed with wash buffer (1×PBS, 0.05% Tween 20). The beads were then re-suspended in elution buffer (1×PBS, 0.05% Tween 20, 0.5 μM non-biotinylated affinity ligand) and incubated at room temperature with shaking for 30 minutes. The kinase concentration in the eluates was measured by qPCR.
(§3) Binding constants were calculated with a standard dose-response curve using the Hill equation: […]
(§4) The Hill Slope was set to −1. Curves were fitted using a non-linear least square fit with the Levenberg-Marquardt algorithm.

The target of experiment [2] is T2, FGFR3 (V555M) (Homo sapiens, UniProt P22607, V555M).
T2 construct: made in house; host or cells: E. coli (BL21-derived) infected with T7 phage
T2 sequence (P22607 23-806 V555M): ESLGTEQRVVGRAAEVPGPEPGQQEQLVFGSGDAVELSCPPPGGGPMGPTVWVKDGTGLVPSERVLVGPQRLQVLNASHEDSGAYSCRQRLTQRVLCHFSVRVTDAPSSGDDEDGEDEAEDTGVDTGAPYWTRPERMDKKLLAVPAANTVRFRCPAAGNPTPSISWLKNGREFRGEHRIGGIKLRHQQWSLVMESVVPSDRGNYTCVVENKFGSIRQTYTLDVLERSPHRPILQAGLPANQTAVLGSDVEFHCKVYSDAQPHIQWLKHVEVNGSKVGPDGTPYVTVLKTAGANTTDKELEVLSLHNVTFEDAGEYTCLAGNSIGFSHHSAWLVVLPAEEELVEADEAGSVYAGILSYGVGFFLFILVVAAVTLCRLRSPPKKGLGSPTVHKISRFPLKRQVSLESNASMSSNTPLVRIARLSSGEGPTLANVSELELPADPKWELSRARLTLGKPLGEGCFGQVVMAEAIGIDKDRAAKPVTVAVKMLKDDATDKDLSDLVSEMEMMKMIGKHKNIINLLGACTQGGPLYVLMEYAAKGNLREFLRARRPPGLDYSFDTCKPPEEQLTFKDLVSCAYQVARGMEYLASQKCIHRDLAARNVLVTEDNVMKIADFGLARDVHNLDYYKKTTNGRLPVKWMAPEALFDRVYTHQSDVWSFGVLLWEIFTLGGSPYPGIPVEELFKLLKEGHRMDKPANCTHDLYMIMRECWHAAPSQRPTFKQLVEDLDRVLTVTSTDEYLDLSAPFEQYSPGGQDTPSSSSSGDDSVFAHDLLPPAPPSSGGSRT
The procedure: as §1, §2, §3, §4

Experiment [3] addresses T3, FGFR1 (Homo sapiens, UniProt P11362).
T3 construct: made in house; host or cells: E. coli (BL21-derived) infected with T7 phage
The procedure: as §1, §2, §3, §4

Experiment [4] addresses T4, FGFR4 (Homo sapiens, UniProt P22455).
T4 construct: made in house; host or cells: E. coli (BL21-derived) infected with T7 phage
The protocol:
as §1, §2, §3, §4

In experiment [5] the target is T5, FGFR3 (Homo sapiens, UniProt P22607).
T5 construct: made in house; host or cells: E. coli (BL21-derived) infected with T7 phage
T5 sequence (P22607 23-806): as the sequence (P22607 23-806 V555M) above, with M533V counted along it
The protocol: as §1, §2, §3, §4

T4 sequence (P22455 22-802): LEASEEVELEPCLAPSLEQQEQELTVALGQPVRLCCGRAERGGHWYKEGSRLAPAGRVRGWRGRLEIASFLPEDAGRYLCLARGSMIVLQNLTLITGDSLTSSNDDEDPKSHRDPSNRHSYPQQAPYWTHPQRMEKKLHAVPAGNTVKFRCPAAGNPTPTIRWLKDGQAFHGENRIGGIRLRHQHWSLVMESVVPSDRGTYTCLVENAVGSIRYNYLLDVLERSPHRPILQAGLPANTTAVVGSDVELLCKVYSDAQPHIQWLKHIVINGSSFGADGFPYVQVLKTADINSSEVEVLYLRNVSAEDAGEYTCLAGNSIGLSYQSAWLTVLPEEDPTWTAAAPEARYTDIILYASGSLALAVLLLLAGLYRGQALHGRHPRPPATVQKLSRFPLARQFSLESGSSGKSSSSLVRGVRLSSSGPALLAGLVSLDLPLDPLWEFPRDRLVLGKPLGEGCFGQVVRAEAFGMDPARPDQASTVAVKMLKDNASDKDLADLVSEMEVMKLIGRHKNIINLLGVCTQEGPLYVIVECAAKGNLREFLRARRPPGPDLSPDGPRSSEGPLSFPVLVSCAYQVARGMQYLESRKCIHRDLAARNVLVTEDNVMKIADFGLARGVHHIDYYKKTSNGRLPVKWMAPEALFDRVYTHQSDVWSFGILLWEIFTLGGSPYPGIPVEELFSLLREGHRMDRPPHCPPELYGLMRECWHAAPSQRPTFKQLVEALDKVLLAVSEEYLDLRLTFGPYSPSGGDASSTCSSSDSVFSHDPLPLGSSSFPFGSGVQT
T3 sequence (P11362 22-822): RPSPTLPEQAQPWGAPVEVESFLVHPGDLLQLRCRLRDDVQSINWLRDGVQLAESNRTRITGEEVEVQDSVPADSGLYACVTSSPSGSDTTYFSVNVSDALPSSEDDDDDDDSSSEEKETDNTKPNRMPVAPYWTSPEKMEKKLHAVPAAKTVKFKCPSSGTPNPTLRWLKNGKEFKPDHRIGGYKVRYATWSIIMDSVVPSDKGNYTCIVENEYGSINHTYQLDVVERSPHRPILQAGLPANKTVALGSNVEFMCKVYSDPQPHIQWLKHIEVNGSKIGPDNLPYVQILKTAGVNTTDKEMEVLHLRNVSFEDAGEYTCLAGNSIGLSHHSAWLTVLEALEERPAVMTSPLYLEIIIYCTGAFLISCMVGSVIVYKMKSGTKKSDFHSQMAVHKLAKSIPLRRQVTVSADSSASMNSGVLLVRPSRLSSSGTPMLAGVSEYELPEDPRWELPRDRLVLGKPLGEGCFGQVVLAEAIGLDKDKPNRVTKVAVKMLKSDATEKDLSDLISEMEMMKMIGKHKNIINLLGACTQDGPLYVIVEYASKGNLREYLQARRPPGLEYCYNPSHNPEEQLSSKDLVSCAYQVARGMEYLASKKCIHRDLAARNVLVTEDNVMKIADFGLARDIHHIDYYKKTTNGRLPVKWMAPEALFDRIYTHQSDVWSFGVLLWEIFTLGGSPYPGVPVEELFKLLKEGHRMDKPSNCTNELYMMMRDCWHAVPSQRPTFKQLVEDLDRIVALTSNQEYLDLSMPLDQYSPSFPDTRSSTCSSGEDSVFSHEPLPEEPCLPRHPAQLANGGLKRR
T1 sequence (P21802 22-821): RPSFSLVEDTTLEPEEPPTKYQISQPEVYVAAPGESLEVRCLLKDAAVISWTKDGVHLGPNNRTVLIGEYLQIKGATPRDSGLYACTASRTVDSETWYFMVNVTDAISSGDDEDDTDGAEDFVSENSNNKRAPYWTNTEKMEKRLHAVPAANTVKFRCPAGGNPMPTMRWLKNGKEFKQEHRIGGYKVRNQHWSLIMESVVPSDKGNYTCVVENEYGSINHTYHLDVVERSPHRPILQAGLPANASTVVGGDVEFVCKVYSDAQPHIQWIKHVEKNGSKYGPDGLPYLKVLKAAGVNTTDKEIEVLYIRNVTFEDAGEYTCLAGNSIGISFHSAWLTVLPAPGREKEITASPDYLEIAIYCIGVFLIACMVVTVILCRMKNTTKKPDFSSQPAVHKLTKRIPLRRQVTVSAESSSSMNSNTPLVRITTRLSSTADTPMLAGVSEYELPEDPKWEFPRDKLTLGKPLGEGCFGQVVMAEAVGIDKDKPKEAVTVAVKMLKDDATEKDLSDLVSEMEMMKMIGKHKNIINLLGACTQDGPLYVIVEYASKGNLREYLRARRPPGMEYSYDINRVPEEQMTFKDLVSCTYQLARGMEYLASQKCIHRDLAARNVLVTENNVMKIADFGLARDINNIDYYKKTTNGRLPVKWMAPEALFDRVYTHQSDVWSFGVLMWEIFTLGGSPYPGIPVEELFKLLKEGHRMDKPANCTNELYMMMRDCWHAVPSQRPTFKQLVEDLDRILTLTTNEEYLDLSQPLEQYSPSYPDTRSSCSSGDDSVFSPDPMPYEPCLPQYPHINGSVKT

Take `C=CC(=O)N1CC(F)(C(=O)N2CCC(n3nnc(-c4cc(O[C@@H](CO)c5ccccn5)c5c(C#N)cnn5c4)c3C)CC2)C1` (single isomer, unassigned) [Example 19]: the Kd (as a rule, a measure of binding affinity in units of concentration) in experiment [1] was 250 to 1000 nM; in experiment [2] it was 250 to 1000 nM; in experiment [3], at least 1000 nM; in experiment [4], at least 1000 nM; in experiment [5], 100 to 250 nM.

In the case of `CCC(=O)N1CC(C(=O)N2CCC(n3nnc(-c4cc(OC(CO)c5ccccn5)c5c(C#N)cnn5c4)c3C)CC2)C1` (stereo not drawn) [Example 16, 4-(2-hydroxy-1-(pyridin-2-yl)ethoxy)-6-(5-methyl-1-(1-(1-propionylazetidine-3-carbonyl)piperidin-4-yl)-1H-1,2,3-triazol-4-yl)pyrazolo[1,5-a]pyridine-3-carbonitrile], the Kd in experiment [1] fell in the range of 0.1 to 100 nM; in experiment [2], 0.1 to 100 nM; in experiment [3], 100 to 250 nM; in experiment [4], 0.1 to 100 nM; in experiment [5] it was 0.1 to 100 nM.

With `C=CC(=O)N1CC(C(=O)N2CCC(n3nnc(-c4cc(O[C@@H](CO)c5ccccn5)c5c(C#N)cnn5c4)c3C)CC2)C1` [Example 17, (R)-6-(1-(1-(1-acryloylazetidine-3-carbonyl)piperidin-4-yl)-5-methyl-1H-1,2,3-triazol-4-yl)-4-(2-hydroxy-1-(pyridin-2-yl)ethoxy)pyrazolo[1,5-a]pyridine-3-carbonitrile], the Kd was 250 to 1000 nM in experiment [1]; 250 to 1000 nM in experiment [2]; at least 1000 nM in experiment [3]; at least 1000 nM in experiment [4]; 100 to 250 nM in experiment [5].

With `C#CC(=O)N1CC(OC)(C(=O)N2CCC(n3nnc(-c4cc(OC(CO)c5ccccn5)c5c(C#N)cnn5c4)c3C)CC2)C1` (stereo not drawn) [Example 24, 4-(2-hydroxy-1-(pyridin-2-yl)ethoxy)-6-(1-(1-(3-methoxy-1-propioloylazetidine-3-carbonyl)piperidin-4-yl)-5-methyl-1H-1,2,3-triazol-4-yl)pyrazolo[1,5-a]pyridine-3-carbonitrile], the Kd in experiment [1], in experiment [2], in experiment [3], in experiment [4] and in experiment [5] was 0.1 to 100 nM each time.

As to `C=CC(=O)N1CCC2(CC1)CC(n1cc(-c3cc(O[C@@H](CO)c4ccc(F)cn4)c4c(C#N)cnn4c3)cn1)C2` [Example 25, (R)-6-(1-(7-acryloyl-7-azaspiro[3.5]nonan-2-yl)-1H-pyrazol-4-yl)-4-(1-(5-fluoropyridin-2-yl)-2-hydroxyethoxy)pyrazolo[1,5-a]pyridine-3-carbonitrile], the Kd in experiment [1] lay in the range of 100 to 250 nM; in experiment [2], 250 to 1000 nM; in experiment [3] it was 100 to 250 nM; in experiment [4], 250 to 1000 nM; in experiment [5] it was 100 to 250 nM.

For the compound `CCC(=O)N1CCC2(CC1)CC(n1cc(-c3cc(O[C@@H](CO)c4ccc(F)cn4)c4c(C#N)cnn4c3)cn1)C2` [Example 26, (R)-4-(1-(5-fluoropyridin-2-yl)-2-hydroxyethoxy)-6-(1-(7-propionyl-7-azaspiro[3.5]nonan-2-yl)-1H-pyrazol-4-yl)pyrazolo[1,5-a]pyridine-3-carbonitrile], the Kd was in the range of 100 to 250 nM in experiment [1]; 250 to 1000 nM in experiment [2]; 100 to 250 nM in experiment [3]; 250 to 1000 nM in experiment [4]; 100 to 250 nM in experiment [5].
